# Measurements taken from US7407753B2, “Methods, kits and pharmaceutical compositions for diagnosing, delaying onset of, preventing and/or treating osteoporosis” (priority 2004, dated 2008).
# Experiments:
# [1] = system: diaphyseal bone marrow derived stromal cells; test: cell count of bone marrow derived stromal cells (preosteoblasts) challenged with ligand; type: cell-based, mouse; conditions: cells grown for 10 days in osteogenic medium; 48 hours incubation with ligand; FIG. 1f
# Procedure: (§1) Cell cultures and mRNA analysis—Osteoclastogenic cultures of monocytes derived from femora and tibiae of WT C57BL/6J mice were set as previously reported (Zou, W., et al., 2002. FASEB J. 16: 274-282). After separation and prior to RNA extraction or cell counts the cells were cultured for 5 days in medium containing M-CSF and RANKL (R&D Systems Inc. Minneapolis, Minn.). Primary bone marrow stromal cell cultures from femoral diaphyseal bone marrow and the MC3T3 E1 cells were cultured as reported previously (Frenkel, B., et al., 1997. Endocrinology 138: 2109-2116; Bab, I., et al., 1992. EMBO J. 11: 1867-1873). The cells were grown in osteogenic medium containing ascorbic acid, β-glycerophophate and dexamethasone (Frenkel, B., et al., 1997. Endocrinology 138: 2109-2116).
# (§2) In the cell count experiments, ligands were dissolved in dimethylsulfoxide and further diluted to their final concentration using tissue culture medium. For osteoclast counts the cultures were fixed in ethanol and TRAP-stained. […] The cells were then serum starved for 2 hours followed by 48 hours incubation in (α-MEM supplemented with 4% BSA and ligand. Cells were separated using chondroitinase and trypsin (Krebsbach, P. H., et al., 1998. Transplantation 66, 1272-1278) and counted with a hemocytometer in triplicate wells per condition.
# [2] = system: tissue non-specific alkaline phosphatase (TNSALP); test: TNSALP activity in the preosteoblastic stromal cell cultures; type: cell-based, mouse; conditions: preosteoblastic stromal cell culture, early differentiation stage; data not shown
# Procedure: as §1, §2
# [3] = system: bone marrow derived osteoclastic cell system; test: count of TRAP-positive multinucleated osteoclasts in primary osteoclastogenic monocyte culture; type: cell-based, mouse; conditions: osteoclastogenic monocyte culture with M-CSF and RANKL; FIG. 1g
# Procedure: as §1, §2
# OVX mice = test: ovariectomy (OVX)-induced femoral bone loss in sexually mature mice; type: in vivo, mouse; conditions: C3H OVX mice, 10 mg/Kg/day subcutaneously for 4 weeks from time of operation; FIGS. 4a-g
# Procedure: Ovariectomy (OVX) mice—C3H mice (Harlan, Israel) were subjected to an ovariectomy procedure. HU-308 was synthesized as described before [Hanus, L., et al. HU-308: a specific agonist for CB(2), a peripheral cannabinoid receptor. Proc. Natl. Acad. Sci. U.S.A. 96: 14228-142-33 (1999)] and was daily injected once subcutaneously as an ethanol/emulphor/saline (1:1:18) solution.
# All reported animals received calcein flurochrome (Sigma), 15 mg/Kg intraperitoneally four days and one day prior to sacrifice. […]
# Micro-computed tomography (μCT)—Whole femora were examined by μCT 40 (Scanco Medical, Bassersdorf, Switzerland). […] Trabecular bone parameters were measured in a metaphyseal segment, extending proximally from the proximal tip of the primary spongiosa to the proximal border of the distal femoral quartile. Cortical bone parameters were determined in a diaphyseal segment extending 1.12 mm distally from the midpoint between the femoral ends.
# Histomorphometry and immunohistochemistry—After μCT image acquisition, the specimens were embedded undecalcified in Technovit 9100 (Heracus Kulzer, Wehrheim, Germany). […] Parameters were determined according to a standardized nomenclature [Parfitt, A. M., et al. Bone histomorphometry: standardization of nomenclature, symbols, and units. […]
Compound,number of diaphyseal bone marrow derived stromal cells [1],activity of the tissue non-specific alkaline phosphatase (TNSALP) [2],number of TRAP positive multinucleated cells [3],ovariectomy (OVX)-induced femoral bone loss (OVX mice)
CCCCCCC(C)(C)c1cc(OC)c([C@@H]2C=C(CO)[C@@H]3C[C@H]2C3(C)C)c(OC)c1 [HU-308],potent increase,unaffected,marked dose dependent decrease,attenuating
"CCCCC/C=C\C/C=C\C/C=C\C/C=C\CCCCOC(CO)CO [Noladin ether, 2-arachidonyl glyceryl ether]",no significant effect,,,
